According to patent US9833497B2, “Human originated EGF domain proteins and use of the same” (CHENGDU SOURCEBIO LIMITED-LIABILITY COMPANY, priority 2013, dated 2017):

How the values were obtained:
Type in all cases: cell-based
Klebsiella pneumonia = assay: MIC against Gram-negative bacteria: Klebsiella pneumonia
Procedure, shortened: (§1)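 Broth microdilution, LB medium, final inoculum 5×10^5 CFU/mL from McFarland 0.5 cultures. Recombinant human EGF domain proteins tested in two-fold steps, n=3. MIC: lowest concentration, no growth.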

Pseudomonas aeruginosa = assay: MIC against Gram-negative bacteria: Pseudomonas aeruginosa
Procedure, shortened: as §1

Serratia marcescens = assay: MIC against Gram-negative bacteria: Serratia marcescens
Procedure, shortened: as §1

Enterobacter cloacae = assay: MIC against Gram-negative bacteria: Enterobacter cloacae
Procedure, shortened: as §1

E. coli BL21 = assay: MIC against Gram-negative bacteria: E. coli BL21
Procedure, shortened: as §1

Citrobacter diversus = assay: MIC against Gram-negative bacteria: Citrobacter diversus
Procedure, shortened: as §1

Proteus vulgaris = assay: MIC against Gram-negative bacteria: Proteus vulgaris
Procedure, shortened: as §1

Moraxella catarrhalis = assay: MIC against Gram-negative bacteria: Moraxella catarrhalis
Procedure, shortened: as §1

Proteus mirabilis = assay: MIC against Gram-negative bacteria: Proteus mirabilis
Procedure, shortened: as §1

E. coli DH5α = assay: Antibacterial activity: MIC and growth curve against E. coli DH5α in 96-well plate; conditions: minimal inhibitory concentration against E. coli DH5α; 96-well plate, 5×10^5 CFU/mL, 37° C., judged after 8 h
Procedure, shortened: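 MIC taken as lowest protein level with no bacterial growth, tracked by A600 every 30 min during 37 °C, 175 rpm culture. Two-fold protein series 50-12.5 μg/mL final, triplicate wells, against 5×10^5 CFU/mL of LB-washed mid-log cells.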

Aeromonas hydrophila = assay: MIC against Gram-negative bacteria: Aeromonas hydrophila
Procedure, shortened: as §1

[1] = K. pneumonia, 10 h cultivation at 37° C., 5×10^5 CFU/mL
[2] = P. aeruginosa, 10 h cultivation at 37° C., 5×10^5 CFU/mL
[3] = S. marcescens, 10 h cultivation at 37° C., 5×10^5 CFU/mL
[4] = E. cloacae, 10 h cultivation at 37° C., 5×10^5 CFU/mL
[5] = E. coli BL21, 10 h cultivation at 37° C., 5×10^5 CFU/mL
[6] = C. diversus, 10 h cultivation at 37° C., 5×10^5 CFU/mL
[7] = P. vulgaris, 10 h cultivation at 37° C., 5×10^5 CFU/mL
[8] = M. catarrhalis, 10 h cultivation at 37° C., 5×10^5 CFU/mL
[9] = P. mirabilis, 10 h cultivation at 37° C., 5×10^5 CFU/mL
[10] = A. hydrophila, 10 h cultivation at 37° C., 5×10^5 CFU/mL
[11] = 10 h cultivation at 37° C., 5×10^5 CFU/mL, two-fold serial dilution
[12] = 96-well plate, 5×10^5 CFU/mL, 37° C., 10 h

## PRT772 (TIVSTESLETLAPGLCQEGQIWNGKQCVCPQGYVGYQCL; listed as Homo sapiens)
Klebsiella pneumonia; [1]
  MIC (μg/mL) K. pneumonia: 50 µg/mL
Pseudomonas aeruginosa; [2]
  MIC (μg/mL) P. aeruginosa: 12.5 µg/mL
Serratia marcescens; [3]
  MIC (μg/mL) S. marcescens: 12.5 µg/mL
Enterobacter cloacae; [4]
  MIC (μg/mL) E. cloacae: 12.5 µg/mL
E. coli BL21; [5]
  MIC (μg/mL) E. coli BL21: 50 µg/mL
Citrobacter diversus; [6]
  MIC (μg/mL) C. diversus: 12.5 µg/mL
Proteus vulgaris; [7]
  MIC (μg/mL) P. vulgaris: 25 µg/mL
Moraxella catarrhalis; [8]
  MIC (μg/mL) M. catarrhalis: 25 µg/mL
Proteus mirabilis; [9]
  MIC (μg/mL) P. mirabilis: 50 µg/mL
E. coli DH5α
  MIC: 12.5 µg/mL
Aeromonas hydrophila; [10]
  MIC (μg/mL) A. hydrophila: 50 µg/mL

## PRT1094 (GDNSCKSNPCHNGGVCHSRWDDFSCSCPALTSGKACE; listed as Homo sapiens)
Klebsiella pneumonia; [11]
  MIC K. pneumonia: 12.5 µg/mL
Pseudomonas aeruginosa; [11]
  MIC P. aeruginosa: 25 µg/mL
Serratia marcescens; [11]
  MIC S. marcescens: 12.5 µg/mL
Enterobacter cloacae; [11]
  MIC E. cloacae: 25 µg/mL
E. coli BL21; [11]
  MIC E. coli BL21: 50 µg/mL
Citrobacter diversus; [11]
  MIC C. diversus: 12.5 µg/mL
Proteus vulgaris; [11]
  MIC P. vulgaris: 50 µg/mL
Moraxella catarrhalis; [11]
  MIC M. catarrhalis: 50 µg/mL
Proteus mirabilis; [11]
  MIC P. mirabilis: 12.5 µg/mL
E. coli DH5α
  MIC: 25 µg/mL
Aeromonas hydrophila; [11]
  MIC A. hydrophila: 50 µg/mL

## PRT816 (WGPDCSHPCNCSAGHGSCDAISGLCLCEAGYVGPRCE; listed as Homo sapiens)
Klebsiella pneumonia; [1]
  MIC (μg/mL) K. pneumonia: 50 µg/mL
Pseudomonas aeruginosa; [2]
  MIC (μg/mL) P. aeruginosa: 100 µg/mL
Serratia marcescens; [3]
  MIC (μg/mL) S. marcescens: 12.5 µg/mL
Enterobacter cloacae; [4]
  MIC (μg/mL) E. cloacae: 25 µg/mL
E. coli BL21; [5]
  MIC (μg/mL) E. coli BL21: 50 µg/mL
Citrobacter diversus; [6]
  MIC (μg/mL) C. diversus: 25 µg/mL
Proteus vulgaris; [7]
  MIC (μg/mL) P. vulgaris: 25 µg/mL
Moraxella catarrhalis; [8]
  MIC (μg/mL) M. catarrhalis: 50 µg/mL
Proteus mirabilis; [9]
  MIC (μg/mL) P. mirabilis: 25 µg/mL
E. coli DH5α
  MIC: 25 µg/mL
Aeromonas hydrophila; [10]
  MIC (μg/mL) A. hydrophila: 12.5 µg/mL

## PRT1266 (CMNKDHGCSHICKEAPRGSVACECRPGFELAKNQRDC; listed as Homo sapiens)
Klebsiella pneumonia; Klebsiella pneumonia, 96-well plate, 5×10^5 CFU/mL, 37° C., 10 h
  MIC against K. pneumonia: 50 µg/mL
Pseudomonas aeruginosa; Pseudomonas aeruginosa, 96-well plate, 5×10^5 CFU/mL, 37° C., 10 h
  MIC against P. aeruginosa: 25 µg/mL
Serratia marcescens; Serratia marcescens, 96-well plate, 5×10^5 CFU/mL, 37° C., 10 h
  MIC against S. marcescens: 50 µg/mL
Enterobacter cloacae; Enterobacter cloacae, 96-well plate, 5×10^5 CFU/mL, 37° C., 10 h
  MIC against E. cloacae: 25 µg/mL
E. coli BL21; E. coli BL21, 96-well plate, 5×10^5 CFU/mL, 37° C., 10 h
  MIC against E. coli BL21: 12.5 µg/mL
Citrobacter diversus; Citrobacter diversus, 96-well plate, 5×10^5 CFU/mL, 37° C., 10 h
  MIC against C. diversus: 12.5 µg/mL
Proteus vulgaris; Proteus vulgaris, 96-well plate, 5×10^5 CFU/mL, 37° C., 10 h
  MIC against P. vulgaris: 12.5 µg/mL
Moraxella catarrhalis; Moraxella catarrhalis, 96-well plate, 5×10^5 CFU/mL, 37° C., 10 h
  MIC against M. catarrhalis: 25 µg/mL
Proteus mirabilis; Proteus mirabilis, 96-well plate, 5×10^5 CFU/mL, 37° C., 10 h
  MIC against P. mirabilis: 50 µg/mL
E. coli DH5α
  MIC: 50 µg/mL
Aeromonas hydrophila; Aeromonas hydrophila, 96-well plate, 5×10^5 CFU/mL, 37° C., 10 h
  MIC against A. hydrophila: 25 µg/mL

## PRT727 (EFDDCQIWGICDQKCESRPGRHLCHCEEGYILERGQYCK; listed as Homo sapiens)
Klebsiella pneumonia; [12]
  MIC K. pneumonia: 12.5 µg/mL
Pseudomonas aeruginosa; [12]
  MIC P. aeruginosa: 50 µg/mL
Serratia marcescens; [12]
  MIC S. marcescens: 50 µg/mL
Enterobacter cloacae; [12]
  MIC E. cloacae: 50 µg/mL
E. coli BL21; [12]
  MIC E. coli BL21: 25 µg/mL
Citrobacter diversus; [12]
  MIC C. diversus: 12.5 µg/mL
Proteus vulgaris; [12]
  MIC P. vulgaris: 12.5 µg/mL
Moraxella catarrhalis; [12]
  MIC M. catarrhalis: 25 µg/mL
Proteus mirabilis; [12]
  MIC P. mirabilis: 50 µg/mL
E. coli DH5α
  MIC: 12.5 µg/mL
Aeromonas hydrophila; [12]
  MIC A. hydrophila: 25 µg/mL

## PRT1021 (LQNPCYIGTHGCDTNAACRPGPRTQFTCECSIGFRGDGRTCY; listed as Homo sapiens)
Klebsiella pneumonia; K. pneumonia, 10 h cultivation at 37° C.
  MIC: 50 µg/mL
Pseudomonas aeruginosa; P. aeruginosa, 10 h cultivation at 37° C.
  MIC: 25 µg/mL
Serratia marcescens; S. marcescens, 10 h cultivation at 37° C.
  MIC: 50 µg/mL
Enterobacter cloacae; E. cloacae, 10 h cultivation at 37° C.
  MIC: 25 µg/mL
E. coli BL21; E. coli BL21, 10 h cultivation at 37° C.
  MIC: 12.5 µg/mL
Citrobacter diversus; C. diversus, 10 h cultivation at 37° C.
  MIC: 50 µg/mL
Proteus vulgaris; P. vulgaris, 10 h cultivation at 37° C.
  MIC: 12.5 µg/mL
Moraxella catarrhalis; M. catarrhalis, 10 h cultivation at 37° C.
  MIC: 12.5 µg/mL
Proteus mirabilis; P. mirabilis, 10 h cultivation at 37° C.
  MIC: 50 µg/mL
E. coli DH5α
  MIC: 25 µg/mL
Aeromonas hydrophila; A. hydrophila, 10 h cultivation at 37° C.
  MIC: 12.5 µg/mL
